Data: US20090246276A1, “Pharmaceutical Compositions” (priority 2008, published 2009)
Counter-ions that a name gives are not always drawn.

How the values were obtained:
[1] = Solubility (37° C.) in 0.1N HCl, pH 4.5, pH 6.8; assay type: physicochemical; design: Solubility (37° C.): unit not given here; settings: hydrobromide
[2] = In-vitro dissolution, 900 ml medium (0.1N HCl, pH 4.5 acetate buffer, pH 6.8 or pH 7.5 phosphate buffer), USP Apparatus 1, 75 rpm, 37° C.; assay type: physicochemical
Experimental: The dissolution profile of the above pharmaceutical composition was determined under the dissolution conditions described below in Tables 1A, 1B, and 1C.

CC(NC(C)(C)C)C(=O)c1cccc(Cl)c1 (stereo not shown) [Bupropion HBr, bupropion hydrobromide]
Solubility (37° C.) ([1]; 0.1N HCl): 190 | Solubility (37° C.) ([1]; pH 4.5): 180 | Solubility (37° C.) ([1]; pH 6.8): 200 | % Released ([2]; Example 1 tablet, 0.1N HCl, 1 hr): 12% | % Released ([2]; Example 1 tablet, 0.1N HCl, 2 hr): 29% | % Released ([2]; Example 1 tablet, 0.1N HCl, 3 hr): 45% | % Released ([2]; Example 1 tablet, 0.1N HCl, 4 hr): 59% | % Released ([2]; Example 1 tablet, 0.1N HCl, 5 hr): 73% | % Released ([2]; Example 1 tablet, 0.1N HCl, 6 hr): 84% | % Released ([2]; Example 1 tablet, 0.1N HCl, 7 hr): 93% | % Released ([2]; Example 1 tablet, 0.1N HCl, 8 hr): 100% | % Released ([2]; Example 1 tablet, 0.1N HCl, 9 hr): 103% | % Released ([2]; Example 1 tablet, 0.1N HCl, 10 hr): 104% | % Released ([2]; Example 1 tablet, 0.1N HCl, 11 hr): 104% | % Released ([2]; Example 1 tablet, 0.1N HCl, 12 hr): 104% | % Released ([2]; Example 1 tablet, 0.1N HCl, 13 hr): 103% | % Released ([2]; Example 1 tablet, 0.1N HCl, 14 hr): 103% | % Released ([2]; Example 1 tablet, pH 4.5 acetate buffer, 1 hr): 12% | % Released ([2]; Example 1 tablet, pH 4.5 acetate buffer, 2 hr): 28% | % Released ([2]; Example 1 tablet, pH 4.5 acetate buffer, 3 hr): 43% | % Released ([2]; Example 1 tablet, pH 4.5 acetate buffer, 4 hr): 57% | % Released ([2]; Example 1 tablet, pH 4.5 acetate buffer, 5 hr): 70% | % Released ([2]; Example 1 tablet, pH 4.5 acetate buffer, 6 hr): 81% | % Released ([2]; Example 1 tablet, pH 4.5 acetate buffer, 7 hr): 91% | % Released ([2]; Example 1 tablet, pH 4.5 acetate buffer, 8 hr): 98% | % Released ([2]; Example 1 tablet, pH 4.5 acetate buffer, 9 hr): 103% | % Released ([2]; Example 1 tablet, pH 4.5 acetate buffer, 10 hr): 105% | % Released ([2]; Example 1 tablet, pH 4.5 acetate buffer, 11 hr): 106% | % Released ([2]; Example 1 tablet, pH 4.5 acetate buffer, 12 hr): 106% | % Released ([2]; Example 1 tablet, pH 4.5 acetate buffer, 13 hr): 106% | % Released ([2]; Example 1 tablet, pH 4.5 acetate buffer, 14 hr): 106% | % Released ([2]; Example 1 tablet, pH 4.5 acetate buffer, 15 hr): 105% | % Released ([2]; Example 1 tablet, pH 4.5 acetate buffer, 16 hr): 105% | % Released ([2]; Example 1 tablet, pH 6.8 phosphate buffer, 1 hr): 12% | % Released ([2]; Example 1 tablet, pH 6.8 phosphate buffer, 2 hr): 27% | % Released ([2]; Example 1 tablet, pH 6.8 phosphate buffer, 3 hr): 42% | % Released ([2]; Example 1 tablet, pH 6.8 phosphate buffer, 4 hr): 56% | % Released ([2]; Example 1 tablet, pH 6.8 phosphate buffer, 5 hr): 69% | % Released ([2]; Example 1 tablet, pH 6.8 phosphate buffer, 6 hr): 80% | % Released ([2]; Example 1 tablet, pH 6.8 phosphate buffer, 7 hr): 88% | % Released ([2]; Example 1 tablet, pH 6.8 phosphate buffer, 8 hr): 95% | % Released ([2]; Example 1 tablet, pH 6.8 phosphate buffer, 9 hr): 98% | % Released ([2]; Example 1 tablet, pH 6.8 phosphate buffer, 10 hr): 100% | % Released ([2]; Example 1 tablet, pH 6.8 phosphate buffer, 11 hr): 100% | % Released ([2]; Example 1 tablet, pH 6.8 phosphate buffer, 12 hr): 100% | % Released ([2]; Example 1 tablet, pH 6.8 phosphate buffer, 13 hr): 101% | % Released ([2]; Example 1 tablet, pH 6.8 phosphate buffer, 14 hr): 100% | % Released ([2]; Example 1 tablet, pH 6.8 phosphate buffer, 15 hr): 99% | % Released ([2]; Example 1 tablet, pH 6.8 phosphate buffer, 16 hr): 99% | % Released ([2]; Example 2 tablet, 0.1N HCl, 1 hr): 12% | % Released ([2]; Example 2 tablet, 0.1N HCl, 2 hr): 29% | % Released ([2]; Example 2 tablet, 0.1N HCl, 4 hr): 61% | % Released ([2]; Example 2 tablet, 0.1N HCl, 8 hr): 100% | % Released ([2]; Example 2 tablet, 0.1N HCl, 12 hr): 103% | % Released ([2]; Example 2 tablet, pH 4.5 acetate buffer, 1 hr): 12% | % Released ([2]; Example 2 tablet, pH 4.5 acetate buffer, 2 hr): 28% | % Released ([2]; Example 2 tablet, pH 4.5 acetate buffer, 4 hr): 57% | % Released ([2]; Example 2 tablet, pH 4.5 acetate buffer, 8 hr): 97% | % Released ([2]; Example 2 tablet, pH 4.5 acetate buffer, 16 hr): 101% | % Released ([2]; Example 2 tablet, pH 6.8 phosphate buffer, 1 hr): 11% | % Released ([2]; Example 2 tablet, pH 6.8 phosphate buffer, 2 hr): 27% | % Released ([2]; Example 2 tablet, pH 6.8 phosphate buffer, 4 hr): 55% | % Released ([2]; Example 2 tablet, pH 6.8 phosphate buffer, 8 hr): 94% | % Released ([2]; Example 2 tablet, pH 6.8 phosphate buffer, 12 hr): 97% | % Released ([2]; Example 2 tablet, pH 6.8 phosphate buffer, 16 hr): 96% | % Released ([2]; Example 3 tablet, 0.1N HCl, 1 hr): 13% | % Released ([2]; Example 3 tablet, 0.1N HCl, 2 hr): 31% | % Released ([2]; Example 3 tablet, 0.1N HCl, 4 hr): 62% | % Released ([2]; Example 3 tablet, 0.1N HCl, 12 hr): 104% | % Released ([2]; Example 3 tablet, 0.1N HCl, 16 hr): 103% | % Released ([2]; Example 3 tablet, pH 4.5 acetate buffer, 1 hr): 12% | % Released ([2]; Example 3 tablet, pH 4.5 acetate buffer, 2 hr): 28% | % Released ([2]; Example 3 tablet, pH 4.5 acetate buffer, 4 hr): 58% | % Released ([2]; Example 3 tablet, pH 4.5 acetate buffer, 8 hr): 99% | % Released ([2]; Example 3 tablet, pH 4.5 acetate buffer, 12 hr): 103% | % Released ([2]; Example 3 tablet, pH 6.8 phosphate buffer, 1 hr): 11% | % Released ([2]; Example 3 tablet, pH 6.8 phosphate buffer, 2 hr): 27% | % Released ([2]; Example 3 tablet, pH 6.8 phosphate buffer, 4 hr): 57% | % Released ([2]; Example 3 tablet, pH 6.8 phosphate buffer, 8 hr): 98% | % Released ([2]; Example 3 tablet, pH 6.8 phosphate buffer, 12 hr): 100% | % Released ([2]; Example 3 tablet, pH 6.8 phosphate buffer, 16 hr): 99% | % Released ([2]; Example 4 tablet, 0.1N HCl, 1 hr): 11% | % Released ([2]; Example 4 tablet, 0.1N HCl, 2 hr): 27% | % Released ([2]; Example 4 tablet, 0.1N HCl, 4 hr): 56% | % Released ([2]; Example 4 tablet, 0.1N HCl, 8 hr): 97% | % Released ([2]; Example 4 tablet, 0.1N HCl, 12 hr): 105% | % Released ([2]; Example 4 tablet, 0.1N HCl, 16 hr): 103% | % Released ([2]; Example 5 tablet, 0.1N HCl, 1 hr): 9% | % Released ([2]; Example 5 tablet, 0.1N HCl, 2 hr): 20% | % Released ([2]; Example 5 tablet, 0.1N HCl, 4 hr): 43% | % Released ([2]; Example 5 tablet, 0.1N HCl, 8 hr): 82% | % Released ([2]; Example 5 tablet, 0.1N HCl, 12 hr): 98% | % Released ([2]; Example 5 tablet, 0.1N HCl, 16 hr): 99% | % Released ([2]; Example 6 tablet, 0.1N HCl, 1 hr): 13% | % Released ([2]; Example 6 tablet, 0.1N HCl, 2 hr): 30% | % Released ([2]; Example 6 tablet, 0.1N HCl, 4 hr): 61% | % Released ([2]; Example 6 tablet, 0.1N HCl, 8 hr): 98% | % Released ([2]; Example 6 tablet, 0.1N HCl, 12 hr): 100% | % Released ([2]; Example 6 tablet, 0.1N HCl, 16 hr): 100% | % Released ([2]; Example 7 tablet, 0.1N HCl, 1 hr): 2% | % Released ([2]; Example 7 tablet, 0.1N HCl, 8 hr): 36% | % Released ([2]; Example 7 tablet, 0.1N HCl, 12 hr): 57% | % Released ([2]; Example 7 tablet, 0.1N HCl, 16 hr): 74%
